Experimental data published in patent publication EP4227307A1 (Genzyme Corporation, priority 2022, dated 2023).
Counter-ions that a name gives are not always drawn.

Target: T1, human recombinant 6His-Nterm SHP2 full-length (Thr2-Arg593) (Homo sapiens, UniProt Q06124)
T1 construct: 6His-Nterm SHP2 full-length (Thr2-Arg593, R&D system); 6His (N); purchased R&D system
T1 sequence (Q06124 2-593): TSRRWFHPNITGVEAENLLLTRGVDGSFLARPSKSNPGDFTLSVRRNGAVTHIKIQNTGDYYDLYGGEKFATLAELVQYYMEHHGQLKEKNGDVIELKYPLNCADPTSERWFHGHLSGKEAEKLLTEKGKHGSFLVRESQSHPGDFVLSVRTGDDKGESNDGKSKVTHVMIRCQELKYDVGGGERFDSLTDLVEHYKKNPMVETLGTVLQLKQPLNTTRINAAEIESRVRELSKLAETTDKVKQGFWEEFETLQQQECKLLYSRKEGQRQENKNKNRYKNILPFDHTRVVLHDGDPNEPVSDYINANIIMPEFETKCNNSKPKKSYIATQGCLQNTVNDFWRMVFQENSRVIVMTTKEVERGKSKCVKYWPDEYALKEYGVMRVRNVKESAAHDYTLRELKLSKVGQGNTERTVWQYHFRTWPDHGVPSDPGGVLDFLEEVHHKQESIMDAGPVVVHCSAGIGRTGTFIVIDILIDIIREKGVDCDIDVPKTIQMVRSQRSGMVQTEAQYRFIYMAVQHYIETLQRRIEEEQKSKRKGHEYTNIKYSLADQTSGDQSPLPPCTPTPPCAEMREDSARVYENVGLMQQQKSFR
Assay: SHP2 Phosphatase Assay (DiFMUP fluorescence)
Format: biochemical
Details: SHP2 0.2 nM pre-incubated with 100 nM bi-phosphorylated activating peptide; compound 1000-0.05 nM, 30 min pre-incubation; DiFMUP 20 µM, 45 min, room temperature; 10-concentration dose-response
Experimental: Inhibition of SHP2 phosphatase activity was evaluated using human recombinant 6His-Nterm SHP2 full-length (Thr2-Arg593, R&D system), NsCs bi-phosphorylated activating peptide (NH2-LN(pY)AQLWHA(PEG8)LTI(pY)ATIRRF-Amide.acetate, Thermofischer Scientific) and DiFMUP as surrogate phosphatase substrate (Molecular Probes). All reactions were performed at room temperature in 384-well black polystyrene non-binding plate (Corning) with the assay buffer (50 mM HEPES-NaOH pH 7.2, 100 mM NaCl, 0.5 mM EDTA, 0.001% Brij35 including 0.02% BSA and 1 mM DTT added extemporaneously). SHP2 was pre-incubated at least 10 min with the activating peptide (0.2 nM and 100 nM, respectively). 10 µL of this mixture was added to the assay plate, that already contained 15 nL of the compound (1000-0.05 nM). After 30 min pre-incubation, the enzymatic reaction was initiated by the addition of 5 µL DiFMUP in assay buffer without BSA (20 µM). The reaction was stopped by the addition of 15 µL sodium pervanadate solution (100 µM) after 45 min incubation. The fluorescence signal was measured at excitation and emission wavelengths of 350 nm and 450 nm, respectively, using a Pherastar instrument (BMG-LabTech). Percentage of inhibition […] were calculated from the fluorescence signal at 450 nm of the positive and negative control using the following formula: I% = ((signal Max−signal Sample)/(signal Max−signal Min control)) × 100 [formula]
Positive control (Max): corresponds to the maximum fluorescence signal obtained in the presence of 15 nL DMSO replacing the inhibitor in the pre-incubation step.
Negative control (Min): corresponds to the minimum signal obtained in the presence of 1 µM of RMC-4550, the structure of which is shown below: [drawing 464]
The IC50 were then calculated from a dose-response curve of 10 concentrations of tested compound using the 4-parameter logistic model: I% = A + (C)/(1 + exp(−B×log(X)−M)) [formula]
The parameters A and (A+C) are the lower and upper limits, B is the slope of the curve at the inflexion point, M parameter is the logarithm of the abscissa at the inflexion point, and X is the concentration of compound.

Structure (SMILES) | IC50 [nM]
Cc1nc(N2CCC3(CC2)Cc2ccc(C#N)cc2[C@H]3N)c2ccnn2c1-c1cnn(C)c1C (single isomer, unassigned) [Compound 211] | 8
Cc1nc(N2CCC3(CC2)Cc2ccc(C#N)cc2[C@@H]3N)c2ccnn2c1-c1cnn(C)c1C (single isomer, unassigned) [Compound 212] | 288
Cc1nc(N2CCC3(CC2)Cc2ncccc2[C@H]3N)c2ccnn2c1-c1cccc(F)c1F [Compound 1, (5S)-1'-[7-(2,3-difluorophenyl)-6-methyl-pyrazolo[1,5-a]pyrazin-4-yl]spiro[5,7-dihydrocyclopenta[b]pyridine-6,4'-piperidine]-5-amine] | 6
Cc1nc(N2CCC3(CC2)Cc2ncccc2[C@H]3N)c2ccnn2c1-c1cccc(F)c1Cl [Compound 2, (5S)-1'-(7-(2-chloro-3-fluorophenyl)-6-methylpyrazolo[1,5-a]pyrazin-4-yl)-5,7-dihydrospiro[cyclopenta[b]pyridine-6,4'-piperidin]-5-amine] | 6
COc1cccc(-c2c(C)nc(N3CCC4(CC3)Cc3ncccc3[C@H]4N)c3ccnn23)c1Cl [Compound 3, (5S)-1'-(7-(2-chloro-3-methoxyphenyl)-6-methylpyrazolo[1,5-a]pyrazin-4-yl)-5,7-dihydrospiro [cyclopenta[b]pyridine-6,4'-piperidin] -5-amine hydrochloride] | 3
COc1cccc(-c2c(C)nc(N3CCC4(CC3)Cc3ncccc3[C@H]4N)c3ccnn23)c1F [Compound 4, (5S)-1'-[7-(2-fluoro-3-methoxy-phenyl)-6-methyl-pyrazolo [1 ,5-a]pyrazin-4-yl]spiro[5,7-dihydrocyclopenta[b]pyridine-6,4'-piperidine] -5-amine] | 7
COc1c(F)ccc(-c2c(C)nc(N3CCC4(CC3)Cc3ncccc3[C@H]4N)c3ccnn23)c1F [Compound 5, (5S)-1'-[7-(2,4-difluoro-3-methoxy-phenyl)-6-methyl-pyrazolo [1 ,5-a]pyrazin-4-yl]spiro[5,7-dihydrocyclopenta[b]pyridine-6,4'-piperidine] -5-amine] | 3
COc1ccc2c(c1)CC1(CCN(c3nc(C)c(-c4ccnc(C)c4Cl)n4nccc34)CC1)[C@@H]2N [Compound 6, (1S)-1'-[7-(3-chloro-2-methyl-4-pyridyl)-6-methyl-pyrazolo[1,5-a]pyrazin-4-yl]-5-methoxy-spiro[indane-2,4'-piperidine]-1-amine] | 8
Cc1nc(N2CCC3(CC2)Cc2ncccc2[C@H]3N)c2ccnn2c1-c1ccnc(C(C)C)c1Cl [Compound 7, (5S)-1'-[7-(3-chloro-2-isopropyl-4-pyridyl)-6-methyl-pyrazolo[1,5-a]pyrazin-4-yl]spiro[5,7-dihydrocyclopenta[b]pyridine-6,4'-piperidine] -5-amine hydrochloride] | 13
Cc1cnc2c(c1)[C@@H](N)C1(CCN(c3nc(C)c(-c4ccccc4F)n4nccc34)CC1)C2 [Compound 8, (5S)-1'-[7-(2-fluorophenyl)-6-methyl-pyrazolo[1,5-a]pyrazin-4-yl]-3-methyl-spiro[5,7-dihydrocyclopenta[b]pyridine-6,4'-piperidine] -5-amine] | 6
COc1ccc2c(c1)[C@@H](N)C1(CCN(c3nc(C)c(-c4cccc(F)c4Cl)n4nccc34)CC1)C2 [Compound 9, (1S)-1'-[7-(2-chloro-3-fluorophenyl)-6-methyl-pyrazolo[1,5-a]pyrazin-4-yl]-6-methoxy-spiro[indane-2,4'-piperidine]-1-amine hydrochloride] | 43
COc1ccc2c(c1)[C@@H](N)C1(CCN(c3nc(C)c(-c4ccnc(C)c4Cl)n4nccc34)CC1)C2 [Compound 10, (1S)-1'-[7-(3-chloro-2-methyl-4-pyridyl)-6-methyl-pyrazolo [1,5-a]pyrazin-4-yl]-6-methoxy-spiro[indane-2,4'-piperidine]-1-amine hydrochloride] | 11
COc1ccc2c(c1)[C@@H](N)C1(CCN(c3nc(C)c(-c4ccccc4F)n4nccc34)CC1)C2 [Compound 11, (1S)-1'-[7-(2-fluorophenyl)-6-methyl-pyrazolo[1,5-a]pyrazin-4yl]-6-methoxy-spiro[indane-2,4'-piperidine]-1-amine hydrochloride] | 23
Cc1nc(N2CCC3(CC2)Cc2cccnc2[C@H]3N)c2ccnn2c1-c1cccc(F)c1Cl [Compound 12, (7S)-1'-[7-(2-chloro-3-fluorophenyl)-6-methyl-pyrazolo[1,5-a]pyrazin-4-yl]spiro[5,7-dihydrocyclopenta[b]pyridine-6,4'-piperidine]-7-amine] | 14
Cc1nccc(-c2c(C)nc(N3CCC4(CC3)Cc3cccnc3[C@H]4N)c3ccnn23)c1Cl [Compound 13, (7S)-1'-[7-(3-chloro-2-methyl-4-pyridyl)-6-methyl-pyrazolo[1,5-a]pyrazin-4-yl]spiro[5,7-dihydrocyclopenta[b]pyridine-6,4'-piperidine]-7-amine] | 7
Cc1nc(N2CCC3(CC2)Oc2ncccc2[C@H]3N)c2ccnn2c1-c1cccc(F)c1Cl [Compound 14, (3R)-1'-[7-(2-chloro-3-fluorophenyl)-6-methyl-pyrazolo [1 ,5-a]pyrazin-4-yl]spiro[3H-furo[2,3-b]pyridine-2,4'-piperidine]-3-amine] | 40
Cc1nccc(-c2c(C)nc(N3CCC4(CC3)Oc3ncccc3[C@H]4N)c3ccnn23)c1Cl [Compound 15, (3R)-1'-[7-(3-chloro-2-methyl-4-pyridyl)-6-methyl-pyrazolo[1,5-a]pyrazin-4-yl]spiro[3H-furo[2,3-b]pyridine-2,4'-piperidine]-3-amine] | 20
Cc1nc(N2CCC3(CC2)Oc2ncccc2[C@H]3N)c2ccnn2c1-c1ccc(F)c2cc[nH]c12 [Compound 16, (3R)-1'-[7-(4-fluoro-1H-indol-7-yl)-6-methyl-pyrazolo[1,5-a]pyrazin-4-yl]spiro[3H-furo[2,3-b]pyridine-2,4'-piperidine]-3-amine] | 42
Cc1nc(N2CCC3(CC2)Oc2ncccc2[C@H]3N)c2ccnn2c1-c1cccc(Cl)c1Cl [Compound 17, (3R)-1'-[7-(2,3-dichlorophenyl)-6-methyl-pyrazolo[1,5-a]pyrazin-4-yl]spiro[3H-furo[2,3-b]pyridine-2,4'-piperidine]-3-amine] | 39
Cc1nc(N2CCC3(CC2)Oc2ccccc2[C@H]3N)c2ccnn2c1-c1ccc(F)c2cc[nH]c12 [Compound 18, (3R)-1'-[7-(4-fluoro-1H-indol-7-yl)-6-methyl-pyrazolo[1,5-a]pyrazin-4-yl] spiro [3H-benzofuran-2,4'-piperidine] -3 - amine] | 132
Cc1nc(N2CCC3(CC2)Oc2ccccc2[C@H]3N)c2ccnn2c1-c1cccc(Cl)c1Cl [Compound 19, (3R)-1'-[7-(2,3-dichlorophenyl)-6-methyl-pyrazolo [1 ,5-a]pyrazin-4-yl]spiro[3H-benzofuran-2,4'-piperidine]-3-amine] | 102
Cc1nc(N2CCC3(CC2)Oc2ccccc2[C@H]3N)c2ccnn2c1-c1cccc(F)c1Cl [Compound 20, (3R)-1'-[7-(2-chloro-3-fluorophenyl)-6-methyl-pyrazolo[1,5-a]pyrazin-4-yl]spiro[3H-benzofuran-2,4'-piperidine]-3-amine] | 115
Cc1nocc1-c1c(C)nc(N2CCC3(CC2)Cc2ccccc2[C@H]3N)c2ccnn12 [Compound 21, (1S)-1'-[6-methyl-7-(3-methylisoxazol-4-yl)pyrazolo[1,5-a]pyrazin-4-yl]spiro[indane-2,4'-piperidine]-1-amine] | 58
